Reference: article PMC4254195 (European journal of medicinal chemistry, 2014)

Target: T1, PTP1B (Homo sapiens, UniProt P18031)
T1 sequence (P18031 1-435): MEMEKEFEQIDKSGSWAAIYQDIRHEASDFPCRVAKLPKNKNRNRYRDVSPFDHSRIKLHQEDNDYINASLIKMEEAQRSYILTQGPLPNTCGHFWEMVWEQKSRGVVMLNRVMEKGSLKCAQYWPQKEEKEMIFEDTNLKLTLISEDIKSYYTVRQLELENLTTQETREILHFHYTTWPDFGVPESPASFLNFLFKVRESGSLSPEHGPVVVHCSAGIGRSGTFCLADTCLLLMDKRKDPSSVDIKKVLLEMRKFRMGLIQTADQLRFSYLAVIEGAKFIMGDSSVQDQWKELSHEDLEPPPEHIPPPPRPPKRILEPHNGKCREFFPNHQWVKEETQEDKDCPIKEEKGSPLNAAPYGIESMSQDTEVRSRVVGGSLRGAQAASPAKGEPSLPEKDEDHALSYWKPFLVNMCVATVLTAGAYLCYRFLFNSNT
Assay: competition with BiPhYn-1 labelling of PTP1B in cells
Assay type: cell-based

## C=CS(=O)(=O)c1ccccc1 [PVSF, phenyl vinyl sulfone]
  competition with BiPhYn-1 labelling of PTP1B in cells: exhibited loss of detection of oxidized PTP1B with BiPhYn-1 in the presence of increasing concentrations of PVSF
